From patent US20090131465A1, “Synthesis and crystalline forms of melanocortin-4 receptor agonist” (priority 2007, published 2009)

Columns and labels:
[1] = aqueous solubility of the crystalline form (statement only, no method); format: physicochemical; details: qualitative statement, no conditions given
[2] = chemical and physical stability of the crystalline form (statement only, no method); format: physicochemical; details: qualitative statement, no conditions given

aqueous solubility [1]: good | chemical and physical stability [2]: good
Structure (SMILES): CC(=O)NC(C)(C)[C@@H]1CC2(CCN(C(=O)[C@@H]3CN(C(C)(C)C)C[C@H]3c3ccc(F)cc3F)CC2)c2cc(Cl)c(C)cc21.Cl [N-[1-((3R)-1′-1′-{[(3S,4R)-1-tert-butyl-4-(2,4-difluorophenyl)pyrrolidine-3-yl]carbonyl}-6-chloro-5-methyl-2,3-dihydrospiro[indene-1,4′-piperidine]-3-yl)-1-methylethyl]acetamide]
